Experimental data reported in patent publication EP0485217A2, “Hydantoin derivatives, and their use in preventing and treating diabetic complications and circulatory organ diseases” (priority 1990, dated 1992).
Read-outs that look alike come from different tables or passages of the source. Marks after values point to notes of the source that are not given here.

How the values were obtained:
platelet aggregation [1] = assay: Ex-vivo inhibition of platelet aggregation after intravenous administration; format: in vivo, rat; conditions: inhibition relative to control, blood 5 minutes after dosing; for Collagen (10 μM): inducer collagen
Procedure: The thus treated blood was centrifuged at 1500 rpm for 5 minutes to obtain a supernatant fluid in the form of PRP. The residues were then again centrifuged at 4°C and 3000 rpm for 10 minutes to obtain a supernatant fluid in the form of PPP. […] of PRP were put in a PRP cuvette having a stirrer bar with the transmittance set at 0%, while 300 µl of PPP were put in a PPP cuvette with the transmittance set at 100%. After 1-minute preincubation, 20 µl of an aggregation inducer (collagen or ADP) were introduced.
A control group, to which dimethylacetamide and tartaric acid in a ratio of 2/3 were given in a quantity of 1 ml/kg, was treated as with the test group. Upon the addition of the aggregation inducer, a maximum transmittance change was read to find a platelet aggregation change in %.

platelet aggregation [2] = assay: In-vitro inhibition of platelet aggregation in platelet rich plasma; format: cell-based, rat
Procedure: Then, the residues were centrifuged to obtain a supernatant fluid in the form of platelet poor plasma (PPP for short). For measurement, an amount of PRP collected from two to four animals was pooled. The platelet aggregation test was carried out with NBS HEMA TRACER (Model PAT-60 made by Niko Bioscience Co., Ltd.). […] After 1-minute preincubation, 3 µl of the test compound were added and, one minute later, 30 µl of an aggregation inducer (collagen or ADP) were introduced. Added to a control group was the test compound together with 3 µl of dimethyl sulfoxide. Upon the addition of the aggregation inducer, a maximum transmittance change was read to find a platelet aggregation change in %.

[3] = system: Extracted Guinea Pigs' Aortae; assay: Relaxation of extracted thoracic aorta contracted by KCl or NE; parameters: species or system Hartley guinea pigs; conditions: Cavia porcellus
Source text: Stunned by receiving a blow on the head, Hartley guinea pigs (weighing 300-500 g) were fixed at the back regions, and the thoracic aortae were then extracted to prepare helical samples, each ca. 2 mm in width and ca. 25 mm in length. Each sample was suspended in a Magnus tube under a load of ca. 1 g and connected at the upper end with an FD pickup by means of silk thread to record its isometric tension change on a recorder.
Prior to initiating the experiment, the sample was allowed to stand for 60 to 90 minutes, during which the Krebs-Henseleit solution was replaced by a new one at an interval of 20 to 30 minutes. […] Finally, papaverine was additionally provided to regulate the final concentration to 2 x 10- ^5g/ml, thereby observing and recording what relaxing reaction took place.
The state stabilized by the addition of KCI or NE was defined as a 100% relaxation rate, on the basis of which what reaction took place at each concentration was relatively estimated.

right atrium = assay: Extracted heart, right atrium sample (heart rate); parameters: species or system Hartley guinea pigs; conditions: Cavia porcellus, read-out: Heart Rates
Source text: (§1) Stunned by receving a blow on the heads, Hartley guinea pigs (weighing 300-400 g) were fixed on the back regions to extract their hearts. […] This vessel was previously filled with a Krebs-Henseleit solution and the above gaseous mixture continued to be supplied thereto during preparing the sample.
(§2) In order to prepare the sample, the right and left atria were cut out of the ventricular muscule along the atriventricular sulcus from the center of both the right and left auricles.
The contraction of the sample was recorded on a recorder through an FD pickup simultaneously with counting and recording the beat with an instantaneous cardiograph unit.

aldose reductase = aldose reductase (Rattus norvegicus, UniProt P07943); assay: Action on aldose reductase inhibition (method of Kador et al.); format: biochemical; conditions: 50 % inhibition of aldose reductase
Source text: Chem.", Vol. 8, page 81 (1978) to detrermine how much they inhibited aldose reductase.
Note that IC50 is an index to the 50 % inhibition of aldose reductase.

left atrium = assay: Extracted heart, left atrium sample (systole force, electrically stimulated); parameters: species or system Hartley guinea pigs; conditions: Cavia porcellus, read-out: Systole Forces
Source text: as §1, §2
While a platinum bipolar electrode attached to the above-mentioned micro wire clamp was in contact with the atrium, stimuli were given to it by 1-Hz, 2-msec. and 10-V rectangular waves derived through an electrical stimulator and an isolator to record the movement of said atrium with an FD pickup connected with it through silk thread.

[4] = system: coronary artery bloodstream; assay: Coronary bloodstream of dogs under anesthesia (i.v.); format: in vivo; conditions: anesthetized dogs, control 8.7±2.1
Procedure: Fully developed, mongrel male and female dogs were each put under anesthesia with sodium pentobarbital and subjected to commissurotomy while artificial respiration was applied to them. The coronary artery bloodstream was determined with an electromagnetic bloodstream probe attached to the ramus circumflexus of the left coronary artery.
Each of the test compounds was administered to the animal through a cannula fixedly inserted into the cephalic vein.

poikilocytes = assay: Ex-vivo amelioration of poikilocytes (filtration under pressure of erythrocyte suspension); format: in vivo; conditions: rat
Procedure: (§3) Five minutes after the test compound had been intravenously administered to the tail of a rat, blood was gathered from the descending aorta of the rat which was lightly etherized. Added to this blood was citric acid (3.8% sodium citrate) in a volume ratio of 1/10.
Blood gathered with the addition of citric acid was centrifuged at 4°C and 1500 rpm for 10 minutes. The supernatant fluid was discarded. Added to the residues was physiological saline in an amount of about 1.5 times as large, again followed by 10-minute centrifugation at 4°C and 1500 rpm. The supernatant fluid was discarded. One hundred (100) µl of erythrocytes left upon such procedures repeated twice were diluted with physiological saline to prepare 50 ml of a 0.2 % erythrocyte suspension. This suspension was incubated at 37°C for 5 minutes, cooled down to room temperature and examined to find how much the poikilocytes were ameliorated by the filtration-under-pressure procedures described by F. Katsuraya in "Geriatric Medicine", Vol. 20, pp. 151-156 (1982).
To this end, the suspension sample was passed from a continuous feeder through a Millipore membrane having a mean pore size of […] at a rate of 5 ml/min, during which the pressure on the upstream side of the membrane was measured through a pressure transducer with a pressure amplifier and, at the same time, was recorded on a polygraph chart sheet.

erythrocytes = assay: Oxygen dissociation of erythrocytes (HEMOX-ANALYZER), ex vivo; format: in vivo, rat; conditions: 10 mg/kg; control mean 31.08
Source text: as §3
Blood gathered with the addition of heparin was used to determine the oxygen dissociation of the erthro- cytes with HEMOX-ANALYZER.

[5] = Rattus norvegicus, read-out: IC50 Collagen
[6] = 50% relaxation, contraction by KCl 2.5 x 10^-2M, read-out: IC50(M) Contraction by KCl
[7] = 50% relaxation, contraction by norepinephrine 10^-6 g/ml, read-out: IC50(M) Contraction by NE
[8] = 10^-4(M), right atrium, suppression
[9] = 10^-5(M), right atrium, suppression
[10] = rat PRP, aggregation inducer collagen, read-out: IC50 Collagen
[11] = 10^-4(M), left atrium, suppression
[12] = 10^-5(M), left atrium, suppression

| IC50 [3, 6] [M] | IC50 [3, 7] [M] | IC50 (platelet aggregation [2]; [10]) [µM] | IC50 (aldose reductase) [µM] | SMILES | inhibition at 100 µM (right atrium; [8]) [%] | inhibition at 10 µM (right atrium; [9]) [%] | inhibition at 100 µM (left atrium; [11]) [%] | inhibition at 10 µM (left atrium; [12]) [%] | other results |
| --- | --- | --- | --- | --- | --- | --- | --- | --- | --- |
| – | – | – | – | CC(=O)Oc1ccccc1C(=O)O [Aspirin, reference compound] | – | – | – | – | Collagen (10 μM) (platelet aggregation [1]; 30.0 mg/kg intravenously): 77%; IC50 (platelet aggregation [2]; [5]): 210 µM |
| > 0.001 | > 0.001 | 370 | 0.41 | O=C1NC(=O)[C@@]2(C[C@@H](C(=O)N3CCN(CC=Cc4ccccc4)CC3)Oc3ccc(F)cc32)N1 [Compound 3, 4-cinnamyl-1-{(2S,4S)-6-fluoro-2',5'-dioxospiro[chromane-4,4'-imidazolidine]-2-carbonyl}piperazine] | > 20 | 10 to 20 | 10 to 20 | 0 | – |
| 0.00012 | 1e-06 | 430 | 0.045 | O=C1NC(=O)[C@@]2(C[C@@H](C(=O)N3CCN(C(c4ccccc4)c4ccccc4)CC3)Oc3ccc(F)cc32)N1 [Compound 2, 4-diphenylmethyl-1-{(2S,4S)-6-fluoro-2,5'-dioxospiro[chromane-4,4'-imidazolidine]-2-carbonyl}piperazine] | > 20 | 10 to 20 | 10 to 20 | 0 | C.B.S. (coronary bloodstream) ([4]; 1.0 mg/kg i.v.): 13.8±2.9; Amelioration in % (poikilocytes; 1.0 mg/kg intravenously): 37.9%; P50 in mmHg Mean (erythrocytes): 32.58 mmHg; IC50 (platelet aggregation [2]; rat PRP, aggregation inducer ADP, read-out: IC50 ADP): 770 µM |
| – | – | – | – | CC(C(O)c1ccc(O)cc1)N1CCC(Cc2ccccc2)CC1 (stereo not shown) [B, ifenprodil, reference compound] | > 20 | > 20 | 10 to 20 | 0 | – |
| 1.3e-06 | 1e-05 | 630 | 0.31 | O=C1NC(=O)[C@@]2(C[C@@H](C(=O)N3CCC(Cc4ccccc4)CC3)Oc3ccc(F)cc32)N1 [Compound 1] | 0 | 0 | 10 to 20 | 0 | C.B.S. (coronary bloodstream) ([4]; 0.1 mg/kg i.v.): 9.6±6.9; Amelioration in % (poikilocytes; 0.1 mg/kg intravenously): 29.3%; ADP (1 x 10^-6M) (platelet aggregation [1]; 1.0 mg/kg intravenously, inducer ADP 1 x 10^-6M): 44* %; Collagen (10 μM) (platelet aggregation [1]; 1.0 mg/kg intravenously): 57% |
| – | – | – | – | COc1ccc2c(c1)c(CC(=O)O)c(C)n2C(=O)c1ccc(Cl)cc1 [Indomethacin, reference compound] | – | – | – | – | Collagen (10 μM) (platelet aggregation [1]; 30.0 mg/kg intravenously): 49%; IC50 (platelet aggregation [2]; [5]): 68 µM |
| – | – | – | – | COc1cc(/C=C/C(=O)N2CCN(CC(=O)N3CCCC3)CC2)cc(OC)c1OC [Cinepazid, reference compound] | – | – | – | – | IC50 ([3]; read-out: IC50(M) Contraction by KCl): 0.002 M; IC50 ([3]; read-out: IC50(M) Contraction by NE): 0.001 M |
| – | – | – | – | CC(C)NCC(O)COc1cccc2ccccc12 (stereo not shown) [Control A, propranolol, reference compound] | – | – | – | – | inhibition at 10 µM (right atrium): > 20%; inhibition at 100 µM (right atrium): > 20%; inhibition at 10 µM (left atrium): > 20%; inhibition at 100 µM (left atrium): > 20% |
